# Data taken from patent publication US9950987B2, “Aspirin derivatives and uses thereof” (North Carolina Agricultural and Technical State University, priority 2012, dated 2018).
# Entries after “also recorded” stand apart in the source; their conditions may differ.
# Legend:
# [1] = test system: HT-29 human colon cancer cells; assay: MTT growth inhibition assay, HT-29; assay type: cell-based; settings: 48 h, relative to control
# Protocol: (§1) The effects of the aspirin-stilbene derivative conjugates compared to standards were evaluated based on the inhibition of growth of HCT-116 and HT-29 human colon cancer cells. Cells were plated in 96-well plates in growth medium with 10% FBS. After 24 h, the medium was replaced with fresh medium containing test agent with desired final concentration (20, 30, 40, 50, and 60 μM), and the cells were incubated for 48 h. Viable cells were analyzed using the MTT assay, and the results are shown (FIG. 1) relative to control. Each value represents the mean±S.D. (n=8). FIG. 1, Panel A summarizes the results for aspirin (As), Res, RAS, RAS-1, and the combination of resveratrol and aspirin (Res+As). […] FIG. 1, Panel B summarizes the results for As, MRes, MRAS and the combination of MRes and aspirin (MRes+As). […] FIG. 1, Panel C summarizes the results for As, Pt, PAS, and the combination of pterostilbene and aspirin (Pt+As).
# (§2) The effects of As, 6-shogaol (6-s), SAS and the combination of 6-shogaol and aspirin (6-s+As) on the growth of HCT-116 and HT-29 human colon cancer cells and H1299 human lung cancer cells were measured. Cells were plated in 96-well plates in growth medium with 10% FBS. After 24 h, the medium was replaced with fresh medium containing test agent with desired final concentration (5, 7.5, 10, 15, and 20 μM), and the cells were incubated for 48 h. Viable cells were analyzed using the MTT assay, and the results are shown relative to control (FIG. 2).
# as §2, with “6-gingerol (6g), GAS,” for “6-shogaol (6-s), SAS”, “6-gingerol” for “6-shogaol”, “(6g+As)” for “(6-s+As)”, “(20, 40, 60, 80,” for “(5, 7.5, 10, 15,”, “100” for “20”, “3).” for “2).”
# [2] = test system: H1299 human lung cancer cells; assay: MTT growth inhibition assay, H1299; assay type: cell-based; settings: 48 h, relative to control
# Protocol: as §2
# as §2, with “6-gingerol (6g), GAS,” for “6-shogaol (6-s), SAS”, “6-gingerol” for “6-shogaol”, “(6g+As)” for “(6-s+As)”, “(20, 40, 60, 80,” for “(5, 7.5, 10, 15,”, “100” for “20”, “3).” for “2).”
# [3] = test system: HCT-116 human colon cancer cells; assay: MTT growth inhibition assay, HCT-116; assay type: cell-based; settings: 48 h, relative to control
# Protocol: as §1, §2
# as §2, with “6-gingerol (6g), GAS,” for “6-shogaol (6-s), SAS”, “6-gingerol” for “6-shogaol”, “(6g+As)” for “(6-s+As)”, “(20, 40, 60, 80,” for “(5, 7.5, 10, 15,”, “100” for “20”, “3).” for “2).”
# [4] = Urinary metabolic profile in mice (LC/MS); assay type: in vivo; settings: oral gavage 200 mg/kg, 24 h urine, FIG. 5
# Protocol: The metabolic profile of Pt using LC/MS 23 was investigated. PAS was administered to mice (n=5) by oral gavage (200 mg/kg), and urine samples were collected in metabolism cages for 24 h after administration of vehicle (control mice) or PAS. LC/MS methods were developed to analyze PAS, pterostilbene, and aspirin. LC chromatograms of urine samples collected from PAS-treated mice obtained using positive APCI-MS interface (FIG. 5): (A) before and (B) after enzymatic hydrolysis (treated with β-glucuronidase and sulfatase); using negative ESI-MS interface: (C) before and (D) after enzymatic hydrolysis.
# PAS had the highest response under positive APCI/MS mode, and aspirin and salicylic acid had the highest response under negative ESI/MS mode. Both positive APCI/MS and negative ESI/MS modes are sensitive to pterostilbene. However, aspirin and salicylic acid are hardly detectable under positive APCI/MS mode, and PAS is not detectable under negative ESI/MS mode. Therefore, APCI/MS positive mode was used to analyze PAS, pterostilbene, and their metabolites, and ESI/MS negative mode was used to analyze aspirin, pterostilbene, and their metabolites.
# [5] = test system: human colon cancer cells (HCT-116)
# [6] = test system: human colon cancer cells (HT-29)
compound,measurement,setting,value
"CCCCCC(O)CC(=O)CCc1ccc(OC(=O)c2ccccc2OC(C)=O)c(OC)c1 (stereo not shown) [GAS, 6-gingerol aspirinate]",growth inhibitory effect,"[1]; 20, 40, 60, 80, 100 μM, FIG. 3","much stronger growth inhibitory effect than 6-gingerol and aspirin alone, as well as the combination of 6-gingerol and aspirin (1:1)"
same,growth inhibitory effect,"[2]; 20, 40, 60, 80, 100 μM, FIG. 3","much stronger growth inhibitory effect than 6-gingerol and aspirin alone, as well as the combination of 6-gingerol and aspirin (1:1)"
same,growth inhibitory effect,"[3]; 20, 40, 60, 80, 100 μM, FIG. 3","much stronger growth inhibitory effect than 6-gingerol and aspirin alone, as well as the combination of 6-gingerol and aspirin (1:1)"
"COc1cc(C=Cc2ccc(OC(=O)c3ccccc3OC(C)=O)cc2)cc(OC)c1 [PAS, pterostilbene aspirinate]",growth inhibitory effect,"[1]; 20, 30, 40, 50, 60 μM, FIG. 1",weaker growth inhibitory effects than pterostilbene and the combination of pterostilbene and aspirin (1:1)
same,detection of parent compound or deacetylated metabolites in urine,[4],neither PAS nor its deacetylated metabolites were detected
same,hydrolysis in vivo (urinary metabolites),[4],hydrolyzed in mice to generate metabolites of aspirin and pterostilbene
same,growth inhibitory effect,"[3]; 20, 30, 40, 50, 60 μM, FIG. 1",weaker growth inhibitory effects than pterostilbene and the combination of pterostilbene and aspirin (1:1)
"CC(=O)Oc1ccccc1C(=O)Oc1ccc(/C=C/c2cc(O)cc(O)c2)cc1 [RAS, 4′-aspirinated resveratrol]",hydrolysis in cells,[5],hydrolyzed in human colon cancer cells (HCT-116 and HT-29) to generate resveratrol and aspirin
same,growth inhibitory effect,"[1]; 20, 30, 40, 50, 60 μM, FIG. 1","stronger growth inhibitory effect than resveratrol and aspirin alone, and stronger than the combination of resveratrol and aspirin (1:1); also recorded: much stronger growth inhibitory effects than RAS-1, MRAS, and PAS"
same,hydrolysis in cells,[6],hydrolyzed in human colon cancer cells (HCT-116 and HT-29) to generate resveratrol and aspirin
same,growth inhibitory effect,"[3]; 20, 30, 40, 50, 60 μM, FIG. 1","stronger growth inhibitory effect than resveratrol and aspirin alone, and stronger than the combination of resveratrol and aspirin (1:1); also recorded: much stronger growth inhibitory effects than RAS-1, MRAS, and PAS"
"CCCCC/C=C/C(=O)CCc1ccc(OC(=O)c2ccccc2OC(C)=O)c(OC)c1 [SAS, 6-shogaol aspirinate]",growth inhibitory effect,"[1]; 5, 7.5, 10, 15, 20 μM, FIG. 2","stronger growth inhibitory effect than aspirin alone, but less effective than 6-shogaol alone and the combination of 6-shogaol and aspirin (1:1)"
same,growth inhibitory effect,"[2]; 5, 7.5, 10, 15, 20 μM, FIG. 2","stronger growth inhibitory effect than aspirin alone, but less effective than 6-shogaol alone and the combination of 6-shogaol and aspirin (1:1)"
same,growth inhibitory effect,"[3]; 5, 7.5, 10, 15, 20 μM, FIG. 2","stronger growth inhibitory effect than aspirin alone, but less effective than 6-shogaol alone and the combination of 6-shogaol and aspirin (1:1)"
mono-methylated resveratrol aspirinate [MRAS],growth inhibitory effect,"[1]; 20, 30, 40, 50, 60 μM, FIG. 1",weaker growth inhibitory effects than MRes and the combination of MRes and aspirin (1:1)
same,growth inhibitory effect,"[3]; 20, 30, 40, 50, 60 μM, FIG. 1",weaker growth inhibitory effects than MRes and the combination of MRes and aspirin (1:1)
